Measurements from BindingDB's records for patent US20240109930 (Idorsia Pharmaceuticals, 2024).

How the values were obtained:
Galectin-1 = Galectin-1 (Homo sapiens, UniProt P09382); test: Inhibitory Activity Assay
Description: (§1) Briefly, compounds are serially diluted in DMSO (working dilutions). ASF-coated 384well plates are supplemented with 22.8 μL/well of biotinylated hGal-3 or hGal-1 in assay buffer (i.e. 300-1000 ng/mL biotinylated hGal-3 or hGal-1) to which 1.2 μL of compound working dilutions are added and mixed. Plates are incubated for 3 hours at 4° C., then washed with cold assay buffer (3×50 uL), incubated for 1 hour with 25 μL/well of a streptavidin-peroxidase solution (diluted in assay buffer to 80 ng/mL) at 4° C., followed by further washing steps with assay buffer (3×50 uL). Finally, 25 μL/well of ABTS substrate is added.

Galectin-3 = Galectin-3 (Homo sapiens, UniProt P17931); test: Inhibitory Activity Assay
Description: as §1

Chain of Galectin-1 (P09382 whole entry): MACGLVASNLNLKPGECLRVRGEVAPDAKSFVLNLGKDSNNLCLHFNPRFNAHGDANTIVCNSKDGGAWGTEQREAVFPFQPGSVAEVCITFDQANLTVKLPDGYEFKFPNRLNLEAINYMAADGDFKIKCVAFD
Chain of Galectin-3 (P17931 whole entry): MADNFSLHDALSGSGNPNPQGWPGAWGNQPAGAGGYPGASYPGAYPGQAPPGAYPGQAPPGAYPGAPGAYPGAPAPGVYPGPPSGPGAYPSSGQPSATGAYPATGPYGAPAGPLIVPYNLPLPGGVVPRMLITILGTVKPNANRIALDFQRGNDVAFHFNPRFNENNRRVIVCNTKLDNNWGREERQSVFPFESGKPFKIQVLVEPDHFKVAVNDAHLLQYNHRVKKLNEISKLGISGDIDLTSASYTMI

Structure (SMILES) | IC50 (Galectin-1) | IC50 (Galectin-3)
COC(=O)C(C)(C)n1cc(C[C@H]2OC(CO)=C(O)C(N3C[C@H](c4ccc(C)c(F)c4F)NN3)=C2OC)nn1 [US20240109930, Example 1.1.10.] | 4370 nM | 60 nM
COC(=O)C(C)(C)n1cc(C[C@H]2OC(CO)=C(O)C(N3C[C@H](c4ccc(Cl)c(F)c4F)NN3)=C2OC)nn1 [US20240109930, Example 2.1.10.] | 2260 nM | 60 nM
CO[C@@H]1[C@@H](n2cc(-c3ccc(Cl)c(F)c3F)nn2)[C@@H](O)[C@@H](CO)O[C@@H]1Cc1cn(C2COCCC2(F)F)nn1 (some centres undefined) [US20240109930, Example 2.1.73.A] |  | 30 nM
CO[C@@H]1[C@@H](n2cc(-c3ccc(Cl)c(F)c3F)nn2)[C@@H](O)[C@@H](CO)O[C@@H]1Cc1cn([C@@H]2CC[C@H]2F)nn1 [US20240109930, Example 2.1.88.C] |  | 50 nM
CCC1(c2cn(C[C@H]3O[C@H](CO)[C@H](O)[C@H](n4cc(-c5ccc(Cl)c(F)c5F)nn4)[C@H]3OC)nn2)COC1 [US20240109930, Example 2.2.38.] | 1400 nM | 30 nM
CO[C@@H]1[C@@H](n2cc(-c3ccc(Cl)c(F)c3F)nn2)[C@@H](O)[C@@H](CO)O[C@@H]1Cn1cc(C2(CF)CC2)nn1 [US20240109930, Example 2.2.46.] | 2300 nM | 60 nM
CO[C@@H]1[C@@H](n2cc(-c3ccc(Cl)c(F)c3F)nn2)[C@@H](O)[C@@H](CO)O[C@@H]1Cn1cc([C@H]2C[C@@H](NC(=O)OC(C)(C)C)C2)nn1 [US20240109930, Example 2.2.86.] | 2570 nM | 60 nM
COC1=C(n2cc(-c3ccc(C#N)c(F)c3F)nn2)C(O)=C(CO)O[C@@H]1C[C@H]1CN(C2(C(F)F)CCC2)NN1 [US20240109930, Example 5.1.43.] | 1320 nM | 30 nM
